Measurements from patent publication US4649191A, “Conformationally constrained alpha-melanotropin analogs with specific central nervous system activity” (Gibson-Stephens Neuropharmaceuticals, Inc., priority 1984, dated 1987).
Positions of bridges follow the written chain, without caps; N, C: chain ends. Non-standard residues stand in square brackets, D forms with d. Residues, ends and D or L forms follow the SMILES beside them.

Assays:
Sprague-Dawley rats [1] = test: Morphine antagonism, hot plate test; assay type: in vivo, rat; settings: Reversal of morphine analgesia, 100 μg peptide given I.P. 30 min before 5 mg/kg morphine; 55° C. hot plate, 60 s cut-off; water vehicle control 56.1
Experimental: (§1) Central nervous system activity is determined in an assay which measures the ability of peptides to reverse or inhibit the in vivo analgesia induced in rats by morphine compared to the ability of the peptide to cause skin darkening in frogs in vivo. For a discussion of these assays see generally, Beckwith, B. E. and Sandman, C. A., Peptides, 3, 411-420 (1982) and Zimmerman, E. and Krivoy, W. A., Prog. Brain Res.; 39, 383-394 (1973), which are specifically incorporated by reference herein.
(§2) In Vivo Bioassays. Morphine antagonism was tested in Sprague-Dawley rats (250-300 g) by administering the compounds of the present invention and measuring the latency to rear paw lick and jumping.
(§3) Each rat received either a water vehicle or an α-MSH analog intraperitoneally. Thirty minutes later 5 mg/kg of morphine was administered to all animals and 30 minutes after the administration of the morphine, the percent analgesia was measured. Each animal was placed on a 55° C. hot plate. A sixty second cut-off was used and animals not responding within this time was considered analgesic. The results of these tests are summarized in Table I. Percent analgesia was calculated as follows: [formula] Antagonism to morphine analgesia was also measured using the tail flick test. The tails of the treated animals were placed in a 55° C. water bath and the latency of the animals to withdraw was measured in seconds. A fifteen second cut-off time was used.

frog Rana pipiens = test: Frog skin bioassay (skin darkening, peripheral activity); assay type: in vivo; settings: injected into dorsal lymph sac of Rana pipiens, 30 minute observation
Experimental: as §1
The peripheral activity of the compounds was tested using the frog skin bioassay system. See O'Donohue, T. L. and Dorsa, D. M., Peptides, 3, 353-395 (1982) and Hadley, M.E. et. al., Science, 213, 1025-1027 (1981) which are herein specifically incorporated by reference. Peptides were injected into the dorsal lymph sac of the frog Rana pipiens in amounts up to 20 mg. […] The lowest dose of peptide that produced skin darkening within the 30 minute observation period was determined. For example, in Table I, only 0.1 ng/g of α-MSH was administered before skin darkening was observed. In contract, 30 μg/g of [drawing 23] was administered and no skin darkening was observed.

Sprague-Dawley rats [2] = test: Morphine antagonism, tail flick test; assay type: in vivo, rat; settings: Reversal of morphine analgesia, 100 μg peptide given I.P. 30 min before 5 mg/kg morphine; 55° C. water bath, 15 s cut-off; water vehicle control 48.9
Experimental: as §1, §2, §3
Percent analgesia in the tail flick test was calculated as follows: [formula]

## NCCCC[C@H]1NC(=O)[C@H](Cc2ccccc2)NC(=O)[C@H](Cc2c[nH]cn2)NC(=O)[C@H](CCC(=O)O)NC(=O)[C@@H](N)CSSC[C@@H](C(=O)O)NC(=O)[C@H](Cc2ccccc2)NC1=O (H-CEHF[dK]FC-OH; disulfide 1-7)
Sprague-Dawley rats [1]
  Percent Analgesia Hot Plate: 15.5%
Frog Rana pipiens
  Minimum dose Producing Skin Darkening: > 1 µg/g
Sprague-Dawley rats [2]
  Percent Analgesia Tail Flick: 14.9%

## N=C(N)NCCC[C@H]1NC(=O)[C@H](Cc2ccccc2)NC(=O)[C@H](Cc2c[nH]cn2)NC(=O)[C@H](CCC(=O)O)NC(=O)[C@@H](N)CSSC[C@@H](C(=O)O)NC(=O)[C@H](Cc2c[nH]c3ccccc23)NC1=O
Frog Rana pipiens
  Minimum dose Producing Skin Darkening: > 20 µg/g
Sprague-Dawley rats [2]
  Percent Analgesia Tail Flick: 6.7%

## β-MSH [reference compound]
Sprague-Dawley rats [1]
  Percent Analgesia Hot Plate: 26.9%
Sprague-Dawley rats [2]
  Percent Analgesia Tail Flick: 11.9%

## N=C(N)NCCC[C@H]1NC(=O)[C@H](Cc2ccccc2)NC(=O)[C@H](Cc2c[nH]cn2)NC(=O)[C@H](CCC(=O)O)NC(=O)[C@@H](N)CSSC[C@H](C(=O)O)NC(=O)[C@H](Cc2ccccc2)NC1=O (H-CEHF[dR]F[dC]-OH; disulfide 1-7)
Sprague-Dawley rats [1]
  Percent Analgesia Hot Plate: 42.6%
Frog Rana pipiens
  Minimum dose Producing Skin Darkening: > 1 µg/g
Sprague-Dawley rats [2]
  Percent Analgesia Tail Flick: 34.3%

## NCCCC[C@H]1NC(=O)[C@H](Cc2ccccc2)NC(=O)[C@H](Cc2c[nH]cn2)NC(=O)[C@H](CCC(=O)O)NC(=O)[C@@H](N)CSSC[C@H](C(=O)O)NC(=O)[C@H](Cc2ccccc2)NC1=O (H-CEHF[dK]F[dC]-OH; disulfide 1-7)
Sprague-Dawley rats [1]
  Percent Analgesia Hot Plate: 15.0%
Frog Rana pipiens
  Minimum dose Producing Skin Darkening: 1 µg/g
Sprague-Dawley rats [2]
  Percent Analgesia Tail Flick: 10.5%

## NCCCC[C@H]1NC(=O)[C@H](Cc2ccccc2)NC(=O)[C@H](Cc2c[nH]cn2)NC(=O)[C@H](CCC(=O)O)NC(=O)[C@@H](N)CSSC[C@@H](C(=O)O)NC(=O)[C@H](Cc2c[nH]c3ccccc23)NC1=O (H-CEHF[dK]WC-OH; disulfide 1-7)
Frog Rana pipiens
  Minimum dose Producing Skin Darkening: > 30 µg/g
Sprague-Dawley rats [2]
  Percent Analgesia Tail Flick: 1.5%
